Source: ChEMBL document CHEMBL1201862, “PubChem BioAssay data set” (2004)
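Step 1: Grow cells in 96-well plates. Step 2: Expose to compound for 48 hours at 5 concentrations. Step 3: Interpolate endpoints linearly; if unreached, use highest concentration. At the GI50, growth is halved.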 Active and inactive are the calls of the source. Cut-off read from the data, not from the text of the source: active = GI50 up to about 1.1 µM and inactive = higher.

Experiments:
Test in all cases: growth of human tumour cells (NCI), 48 h
ACHN = test system: ACHN
OVCAR-4 = test system: OVCAR-4
UO-31 = test system: UO-31
OVCAR-5 = test system: OVCAR-5
SF-295 = test system: SF-295
LOX IMVI = test system: LOX IMVI
HCC 2998 = test system: HCC 2998
K562 = test system: K562
NCI-H460 = test system: NCI-H460
HOP-62 = test system: HOP-62
SK-MEL-5 = test system: SK-MEL-5
BT-549 = test system: BT-549
MDA-MB-231 = test system: MDA-MB-231
SNB-19 = test system: SNB-19
HCT-116 = test system: HCT-116
SF-268 = test system: SF-268
MDA-MB-435 = test system: MDA-MB-435
T47D = test system: T47D
OVCAR-3 = test system: OVCAR-3
RPMI-8226 = test system: RPMI-8226

Measured: GI50

Cc1cc(=O)[nH]c2cc(NC(=O)C(C)NC(=O)C(C)NC(=O)C(C)NC(=O)OC(C)(C)C)ccc12 (stereo not given)
inactive: ACHN > 15 µM | OVCAR-4 > 15 µM | UO-31 > 15 µM | OVCAR-5 > 15 µM | SF-295 > 15 µM | LOX IMVI > 15 µM | HCC 2998 > 15 µM | K562 > 15 µM | NCI-H460 > 15 µM | HOP-62 > 15 µM | SK-MEL-5 > 15 µM | BT-549 > 15 µM | MDA-MB-231 > 15 µM | SNB-19 > 15 µM | HCT-116 > 15 µM | SF-268 > 15 µM | MDA-MB-435 > 15 µM | T47D > 15 µM

COC(=O)C(Cc1c(C2Nc3ccccc3C2CC(NC(C)=O)C(=O)OC)[nH]c2ccccc12)NC(C)=O (stereo not given)
inactive: ACHN > 100 µM | UO-31 > 100 µM | OVCAR-3 > 100 µM | OVCAR-5 > 100 µM | RPMI-8226 > 100 µM | SF-295 > 100 µM | LOX IMVI > 100 µM | K562 > 100 µM | NCI-H460 > 100 µM | HOP-62 > 100 µM | SK-MEL-5 > 100 µM | BT-549 > 100 µM | MDA-MB-231 > 100 µM | SNB-19 > 100 µM | HCT-116 > 100 µM | SF-268 > 100 µM | MDA-MB-435 > 100 µM | T47D > 100 µM

COc1cc2c3cc1Oc1cc(ccc1O)C[C@@H]1c4c(cc(OC)c(O)c4Oc4ccc(cc4)C[C@@H]3N(C)CC2)CC[N+]1(C)C
inactive: ACHN > 100 µM | OVCAR-4 73.8 µM | UO-31 > 100 µM | OVCAR-3 25.7 µM | OVCAR-5 > 100 µM | RPMI-8226 79.6 µM | SF-295 19.9 µM | LOX IMVI 17.8 µM | K562 42 µM | NCI-H460 33.3 µM | HOP-62 6.95 µM | SK-MEL-5 > 100 µM | BT-549 > 100 µM | MDA-MB-231 25.1 µM | SNB-19 > 100 µM | HCT-116 48.4 µM | SF-268 32.4 µM | MDA-MB-435 43.7 µM | T47D 23.8 µM

Cn1c(=O)c2[nH]c(C3CC(=O)CC(c4nc5c([nH]4)c(=O)n(C)c(=O)n5C)N3)nc2n(C)c1=O (stereo not given)
inactive: ACHN > 100 µM | OVCAR-4 > 100 µM | UO-31 > 100 µM | OVCAR-3 > 100 µM | OVCAR-5 > 100 µM | RPMI-8226 > 100 µM | SF-295 > 100 µM | LOX IMVI > 100 µM | K562 72.8 µM | NCI-H460 > 100 µM | HOP-62 > 100 µM | SK-MEL-5 > 100 µM | BT-549 > 100 µM | MDA-MB-231 > 100 µM | SNB-19 > 100 µM | HCT-116 > 100 µM | SF-268 > 100 µM | MDA-MB-435 > 100 µM | T47D > 100 µM

COc1ccc(C2SCC(=O)N2NC2=NC(=O)CC(=O)N2)cc1 (stereo not given)
inactive: ACHN > 100 µM | OVCAR-4 > 100 µM | UO-31 > 100 µM | OVCAR-3 > 100 µM | OVCAR-5 > 100 µM | RPMI-8226 > 100 µM | SF-295 > 100 µM | HCC 2998 > 100 µM | K562 > 100 µM | NCI-H460 > 100 µM | HOP-62 > 100 µM | SK-MEL-5 > 100 µM | BT-549 > 100 µM | MDA-MB-231 > 100 µM | HCT-116 > 100 µM | SF-268 > 100 µM | MDA-MB-435 > 100 µM | T47D > 100 µM

O=CNC(Cc1c[nH]cn1)C(=O)O (stereo not given)
inactive: ACHN > 100 µM | OVCAR-4 > 100 µM | UO-31 > 100 µM | OVCAR-3 > 100 µM | OVCAR-5 > 100 µM | RPMI-8226 > 100 µM | SF-295 > 100 µM | LOX IMVI > 100 µM | K562 > 100 µM | NCI-H460 > 100 µM | HOP-62 > 100 µM | SK-MEL-5 > 100 µM | BT-549 > 100 µM | MDA-MB-231 > 100 µM | SNB-19 > 100 µM | HCT-116 > 100 µM | SF-268 > 100 µM | MDA-MB-435 > 100 µM | T47D > 100 µM

COc1ccc2c(c1)-c1c(c3cc(OC)ccc3n1CCN(C)C)CC2
inactive: ACHN 15.1 µM | OVCAR-4 17.1 µM | UO-31 11.1 µM | OVCAR-3 14.3 µM | OVCAR-5 15.7 µM | RPMI-8226 12.1 µM | SF-295 17.8 µM | HCC 2998 7.48 µM | K562 6.81 µM | NCI-H460 12.2 µM | HOP-62 15.8 µM | SK-MEL-5 12.4 µM | BT-549 13.9 µM | MDA-MB-231 13.9 µM | HCT-116 12.1 µM | SF-268 18.3 µM | MDA-MB-435 12.6 µM | T47D 17.6 µM

CC(=O)Nc1ccc(C(=O)NN2C(=O)CSC2c2ccc(O)cc2)cc1 (stereo not given)
inactive: ACHN > 100 µM | OVCAR-4 > 100 µM | UO-31 > 100 µM | OVCAR-3 > 100 µM | OVCAR-5 > 100 µM | RPMI-8226 > 100 µM | SF-295 > 100 µM | HCC 2998 > 100 µM | K562 > 100 µM | NCI-H460 > 100 µM | HOP-62 > 100 µM | SK-MEL-5 > 100 µM | BT-549 > 100 µM | MDA-MB-231 > 100 µM | SNB-19 > 100 µM | HCT-116 > 100 µM | SF-268 > 100 µM | MDA-MB-435 > 100 µM | T47D > 100 µM

CN(NC(=O)/C(=C/C=C/c1ccccc1)NC(=O)c1ccccc1)C1=C(Cl)C(=O)[N+](c2ccccc2)=CC1
inactive: ACHN 26.7 µM | OVCAR-4 22.4 µM | UO-31 26.5 µM | OVCAR-3 20.8 µM | OVCAR-5 > 100 µM | RPMI-8226 23.9 µM | SF-295 35 µM | LOX IMVI 17.3 µM | K562 19.9 µM | NCI-H460 37.6 µM | HOP-62 21.7 µM | SK-MEL-5 14.4 µM | BT-549 22.5 µM | MDA-MB-231 18.4 µM | SNB-19 25.4 µM | HCT-116 20.1 µM | SF-268 29.6 µM | MDA-MB-435 17 µM | T47D 15.7 µM

CCOC(=O)CC(=O)Nc1cccc2nc[nH]c12
inactive: ACHN > 100 µM | OVCAR-4 > 100 µM | UO-31 > 100 µM | OVCAR-3 > 100 µM | OVCAR-5 > 100 µM | RPMI-8226 > 100 µM | SF-295 > 100 µM | K562 > 100 µM | NCI-H460 > 100 µM | HOP-62 > 100 µM | SK-MEL-5 > 100 µM | BT-549 > 100 µM | MDA-MB-231 > 100 µM | SNB-19 > 100 µM | HCT-116 > 100 µM | SF-268 98.2 µM | MDA-MB-435 > 100 µM | T47D > 100 µM
